ChEMBL document CHEMBL4422664, “2-Benzoylbenzofuran derivatives possessing piperazine linker as anticancer agents” (Bioorg Med Chem Lett, 2019)

Legend:
A549 [1] = assay: Cytotoxicity against human A549 assessed as reduction in cell viability after 48 hrs by MTT assay; format: functional, cell-based; conditions: A549, 48 h
HeLa = assay: Cytotoxicity against human HeLa assessed as reduction in cell viability after 48 hrs by MTT assay; format: functional, cell-based
SGC-7901 = assay: Cytotoxicity against human SGC7901 assessed as reduction in cell viability after 48 hrs by MTT assay; format: functional, cell-based; conditions: SGC-7901, 48 h
HCT-116 = assay: Cytotoxicity against human HCT116 assessed as reduction in cell viability after 48 hrs by MTT assay; format: functional, cell-based; conditions: HCT-116, 48 h
MCF7 = assay: Cytotoxicity against human MCF7 assessed as reduction in cell viability after 48 hrs by MTT assay; format: functional, cell-based; conditions: MCF7, 48 h
L02 = assay: Cytotoxicity against human L02 assessed as reduction in cell viability after 48 hrs by MTT assay; format: cell-based; conditions: L02, 48 h
A549 [2] = assay: Induction of apoptosis in human A549 assessed as early apoptotic cells after 24 to 48 hrs by Annexin V/propidium iodide staining-based flow cytometric analysis; format: functional, cell-based
A549 [3] = assay: Induction of apoptosis in human A549 assessed as early apoptotic cells at 1 uM after 24 to 48 hrs by Annexin V/propidium iodide staining-based flow cytometric analysis (reference value: 0.79%); format: functional
A549 [4] = assay: Induction of apoptosis in human A549 assessed as late apoptotic cells at 1 uM after 24 to 48 hrs by Annexin V/propidium iodide staining-based flow cytometric analysis (reference value: 0.54%); format: functional
A549 [5] = assay: Induction of apoptosis in human A549 assessed as necrotic cells at 1 uM after 24 to 48 hrs by Annexin V/propidium iodide staining-based flow cytometric analysis (reference value: 0.16%); format: functional
A549 [6] = assay: Induction of apoptosis in human A549 assessed as viable cells at 1 uM after 24 to 48 hrs by Annexin V/propidium iodide staining-based flow cytometric analysis (reference value: 98.5%); format: functional; conditions: read-out: Activity
A549 [7] = assay: Induction of apoptosis in human A549 assessed as early apoptotic cells at 2 uM after 24 to 48 hrs by Annexin V/propidium iodide staining-based flow cytometric analysis (reference value: 0.79%); format: functional
A549 [8] = assay: Induction of apoptosis in human A549 assessed as late apoptotic cells at 2 uM after 24 to 48 hrs by Annexin V/propidium iodide staining-based flow cytometric analysis (reference value: 0.54%); format: functional
A549 [9] = assay: Induction of apoptosis in human A549 assessed as necrotic cells at 2 uM after 24 to 48 hrs by Annexin V/propidium iodide staining-based flow cytometric analysis (reference value: 0.16%); format: functional
A549 [10] = assay: Induction of apoptosis in human A549 assessed as viable cells at 2 uM after 24 to 48 hrs by Annexin V/propidium iodide staining-based flow cytometric analysis (reference value: 98.5%); format: functional; conditions: read-out: Activity

Row | Compound | IC50 (A549 [1]) [µM] | IC50 (HeLa) [µM] | IC50 (SGC-7901) [µM] | IC50 (HCT-116) [µM] | IC50 (MCF7) [µM] | IC50 (L02) [µM] | Activity (A549 [2]) | Activity (A549 [3]) [%] | Activity (A549 [4]) [%] | Activity (A549 [5]) [%] | viability at 1 µM (A549 [6]) [%] | Activity (A549 [7]) [%] | Activity (A549 [8]) [%] | Activity (A549 [9]) [%] | viability at 2 µM (A549 [10]) [%]
1 | CCOC(=O)CN1CCN(CC(=O)N2CCN(c3ccc(C(=O)c4cc5ccc(N(CC)CC)cc5o4)cc3)CC2)CC1 | > 40 | 22.1 | > 40 | > 40 | > 40 | 68.7 | – | – | – | – | – | – | – | – | –
2 | CCN(CC)c1ccc2cc(C(=O)c3ccc(N4CCN(C(=O)CN5CCN(C(=O)/C=C/c6ccccc6)CC5)CC4)cc3)oc2c1 | 9.45 | 5.26 | 1.14 | 6.81 | 13.4 | > 100 | – | – | – | – | – | – | – | – | –
3 | CCN(CC)c1ccc2cc(C(=O)c3ccc(N4CCN(C(=O)CN5CCN(C(=O)c6ccc(F)cc6)CC5)CC4)cc3)oc2c1 | > 40 | > 40 | > 40 | > 40 | > 40 | > 100 | – | – | – | – | – | – | – | – | –
4 | CCN(CC)c1ccc2cc(C(=O)c3ccc(N4CCN(C(=O)CN5CCN(C(=O)c6cc(Cl)cc(Cl)c6)CC5)CC4)cc3)oc2c1 | 6.74 | 8.11 | 2.72 | 28 | 16.1 | > 100 | – | – | – | – | – | – | – | – | –
5 | CCN(CC)c1ccc2cc(C(=O)c3ccc(N4CCN(C(=O)CN5CCN(Cc6ccc(C#N)cc6)CC5)CC4)cc3)oc2c1 | 17.4 | > 40 | 26.2 | > 40 | > 40 | 29.6 | – | – | – | – | – | – | – | – | –
6 | CCN(CC)c1ccc2cc(C(=O)c3ccc(N4CCN(C(=O)CN5CCN(CC(=O)c6ccc(OC)cc6)CC5)CC4)cc3)oc2c1 | 4.84 | 15.3 | 8.91 | 17.9 | 16.7 | > 100 | – | – | – | – | – | – | – | – | –
7 | CCN(CC)c1ccc2cc(C(=O)c3ccc(N4CCN(C(=O)CN5CCN(CC(=O)c6ccccc6)CC5)CC4)cc3)oc2c1 | 12.6 | 3.12 | 4.03 | 27.1 | 34.5 | 53.8 | – | – | – | – | – | – | – | – | –
8 | CCN(CC)c1ccc2cc(C(=O)c3ccc(N4CCN(C(=O)CN5CCN(S(=O)(=O)c6ccc(C#N)cc6)CC5)CC4)cc3)oc2c1 | > 40 | 8.47 | > 40 | 36.4 | > 40 | 44.1 | – | – | – | – | – | – | – | – | –
9 | CCN(CC)c1ccc2cc(C(=O)c3ccc(N4CCN(C(=O)CN5CCN(C(=O)CCl)CC5)CC4)cc3)oc2c1 | 3.06 | 5.52 | 1.63 | > 40 | > 40 | 20.9 | – | – | – | – | – | – | – | – | –
10 | C#CCN1CCN(CC(=O)N2CCN(c3ccc(C(=O)c4cc5ccc(N(CC)CC)cc5o4)cc3)CC2)CC1 | > 40 | > 40 | 20.1 | 17.7 | > 40 | > 100 | – | – | – | – | – | – | – | – | –
11 | CCN(CC)c1ccc2cc(C(=O)c3ccc(N4CCN(C(=O)CN5CCN(Cc6ccc(F)c(F)c6)CC5)CC4)cc3)oc2c1 | 5.44 | 6.4 | 1.78 | 26.3 | 9.22 | 10.2 | – | – | – | – | – | – | – | – | –
12 | CCN(CC)c1ccc2cc(C(=O)c3ccc(N4CCN(C(=O)CN5CCN(Cc6ccc(C(F)(F)F)cc6)CC5)CC4)cc3)oc2c1 | 20.1 | > 40 | 32 | > 40 | 18.2 | 6.54 | – | – | – | – | – | – | – | – | –
13 | O=c1[nH]cc(F)c(=O)[nH]1 [FLUOROURACIL] | 10.6 | 10.7 | 12 | 15.5 | 26.3 | – | – | – | – | – | – | – | – | – | –
14 | CCN(CC)c1ccc2cc(C(=O)c3ccc(N4CCN(C(=O)CN5CCN(CC(=O)c6ccc7ccccc7c6)CC5)CC4)cc3)oc2c1 | 26.3 | 17.1 | > 40 | > 40 | > 40 | > 100 | – | – | – | – | – | – | – | – | –
15 | CCN(CC)c1ccc2cc(C(=O)c3ccc(N4CCN(C(=O)CN5CCN(CC(C)=O)CC5)CC4)cc3)oc2c1 | 8.92 | 2.76 | 2.21 | 24 | 11 | > 100 | – | – | – | – | – | – | – | – | –
16 | CCN(CC)c1ccc2cc(C(=O)c3ccc(N4CCN(C(=O)CN5CCN(S(=O)(=O)c6ccc(OC(F)(F)F)cc6)CC5)CC4)cc3)oc2c1 | > 40 | 30.2 | 24.4 | 7.68 | 20.1 | 34.7 | – | – | – | – | – | – | – | – | –
17 | CCN(CC)c1ccc2cc(C(=O)c3ccc(N4CCN(C(=O)CN5CCNCC5)CC4)cc3)oc2c1 | 0.32 | 1.35 | 1.22 | 1.87 | 5.34 | > 100 | – | – | – | – | – | – | – | – | –
18 | CCN(CC)c1ccc2cc(C(=O)c3ccc(N4CCN(C(=O)CN5CCN(S(=O)(=O)C6CC6)CC5)CC4)cc3)oc2c1 | 17.3 | 28.1 | 15.3 | > 40 | > 40 | > 100 | – | – | – | – | – | – | – | – | –
19 | CCN(CC)c1ccc2cc(C(=O)c3ccc(N4CCN(C(=O)CN5CCN(CC(=O)c6ccc(C#N)cc6)CC5)CC4)cc3)oc2c1 | 4.57 | 2.44 | > 40 | > 40 | 11.9 | > 100 | – | – | – | – | – | – | – | – | –
20 | CCN(CC)c1ccc2cc(C(=O)c3ccc(N4CCN(C(=O)CN5CCN(C(=O)c6ccc(C(F)(F)F)cc6)CC5)CC4)cc3)oc2c1 | > 40 | > 40 | > 40 | > 40 | > 40 | 14.3 | – | – | – | – | – | – | – | – | –
21 | CCN(CC)c1ccc2cc(C(=O)c3ccc(N4CCN(C(=O)CN5CCN(CC(=O)c6ccc(C)cc6)CC5)CC4)cc3)oc2c1 | 0.87 | 1.68 | > 40 | 13.4 | > 40 | 36.5 | – | – | – | – | – | – | – | – | –
22 | CCN(CC)c1ccc2cc(C(=O)c3ccc(N4CCN(C(=O)CN5CCN(CC(=O)c6ccc(F)cc6)CC5)CC4)cc3)oc2c1 | 0.57 | 9.64 | 3.44 | 14.2 | 16.7 | 68.4 | – | – | – | – | – | – | – | – | –
23 | CCN(CC)c1ccc2cc(C(=O)c3ccc(N4CCN(C(=O)CN5CCN(S(=O)(=O)c6ccc(F)cc6)CC5)CC4)cc3)oc2c1 | 33.2 | 16.7 | > 40 | > 40 | 20.5 | 9.24 | – | – | – | – | – | – | – | – | –
24 | CCN(CC)c1ccc2cc(C(=O)c3ccc(N4CCN(C(=O)CN5CCN(Cc6ccc(/C=C/C(=O)OC)cc6)CC5)CC4)cc3)oc2c1 | 2.81 | 3.04 | 0.74 | 9.92 | 8.73 | > 100 | Dose-dependent effect | 7.95 | 7.98 | 0.82 | 83.3 | 43.1 | 43.8 | 3.87 | 9.27
25 | CCN(CC)c1ccc2cc(C(=O)c3ccc(N4CCN(C(=O)CN5CCN(S(=O)(=O)c6ccc(C(F)(F)F)cc6)CC5)CC4)cc3)oc2c1 | > 40 | > 40 | > 40 | 32.2 | 17.5 | 17 | – | – | – | – | – | – | – | – | –
